Experimental data taken from ChEMBL document CHEMBL1201862, “PubChem BioAssay data set” (2004).
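Exposure lasted 48 hours, with cells grown in 96-well plates and compounds tested at five concentrations. Abbreviation: GI50, concentration required for 50% inhibition of growth.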 Active and inactive are the calls of the source. Cut-off read from the data, not from the text of the source: active = GI50 up to about 1.1 µM and inactive = higher.

Assays:
Assay in all cases: inhibition of tumour cell growth, NCI panel, 48 h
SK-MEL-28 = system: SK-MEL-28
MDA-N = system: MDA-N
NCI/ADR-RES = system: NCI/ADR-RES
SK-OV-3 = system: SK-OV-3
CCRF-CEM = system: CCRF-CEM
HCT-15 = system: HCT-15
Hs-578T = system: Hs-578T
COLO 205 = system: COLO 205
SR = system: SR
K562 = system: K562
MDA-MB-435 = system: MDA-MB-435
SN12C = system: SN12C
MDA-MB-231 = system: MDA-MB-231
HL-60 = system: HL-60
HOP-62 = system: HOP-62
OVCAR-3 = system: OVCAR-3
RPMI-8226 = system: RPMI-8226
NCI-H522 = system: NCI-H522
U-251 = system: U-251
IGROV-1 = system: IGROV-1

SMILES	GI50 (SK-MEL-28)	GI50 (MDA-N)	GI50 (NCI/ADR-RES)	GI50 (SK-OV-3)	GI50 (CCRF-CEM)	GI50 (HCT-15) [µM]	GI50 (Hs-578T)	GI50 (COLO 205)	GI50 (SR)	GI50 (K562)	GI50 (MDA-MB-435)	GI50 (SN12C)	GI50 (MDA-MB-231)	GI50 (HL-60)	GI50 (HOP-62)	GI50 (OVCAR-3)	GI50 (RPMI-8226)	GI50 (NCI-H522)	GI50 (U-251)	GI50 (IGROV-1)
Cn1c(N)cc(=O)nc1N	> 100 µM (inactive)	> 100 µM (inactive)	> 100 µM (inactive)	> 100 µM (inactive)	> 100 µM (inactive)	> 100	> 100 µM (inactive)	> 100 µM (inactive)	> 100 µM (inactive)	> 100 µM (inactive)	> 100 µM (inactive)	> 100 µM (inactive)	> 100 µM (inactive)	> 100 µM (inactive)	> 100 µM (inactive)	> 100 µM (inactive)	> 100 µM (inactive)	> 100 µM (inactive)	> 100 µM (inactive)	> 100 µM (inactive)
O=C(Nc1sccc1S(=O)(=O)c1ccc(Cl)cc1)c1ccccc1	> 100 µM (inactive)	> 100 µM (inactive)	> 100 µM (inactive)	> 100 µM (inactive)	> 100 µM (inactive)	> 100	> 100 µM (inactive)	> 100 µM (inactive)	> 100 µM (inactive)	> 100 µM (inactive)	> 100 µM (inactive)	> 100 µM (inactive)	> 100 µM (inactive)	> 100 µM (inactive)	87.9 µM (inactive)	> 100 µM (inactive)	> 100 µM (inactive)	> 100 µM (inactive)	> 100 µM (inactive)	> 100 µM (inactive)
CCOC(=O)c1c(SCCN(CC)CC)n(-c2ccccc2)c(=S)n(-c2ccccc2)c1=O	2.62 µM (inactive)	2.7 µM (inactive)	32.1 µM (inactive)	19.3 µM (inactive)	1.26 µM (inactive)	2.54	3.32 µM (inactive)	2.5 µM (inactive)	0.714 µM (active)	1.72 µM (inactive)	2.23 µM (inactive)	1.91 µM (inactive)	3.33 µM (inactive)	1.73 µM (inactive)	17.3 µM (inactive)	1.84 µM (inactive)	0.635 µM (active)	1.56 µM (inactive)	15.6 µM (inactive)	5.16 µM (inactive)
CCOC1C=CC(=O)C(CO)O1 (stereo not given)	16.9 µM (inactive)	15.3 µM (inactive)	14.9 µM (inactive)	18.8 µM (inactive)	1.88 µM (inactive)	10	23.3 µM (inactive)	13.4 µM (inactive)	1.99 µM (inactive)	6.67 µM (inactive)	12.2 µM (inactive)	13.3 µM (inactive)	17.3 µM (inactive)	5.57 µM (inactive)	13.2 µM (inactive)	6.73 µM (inactive)	2.14 µM (inactive)	1.67 µM (inactive)	12.7 µM (inactive)	12.9 µM (inactive)
COc1ccc(/C=C(/C#N)C(N)=O)c(OC)c1	> 100 µM (inactive)	19.3 µM (inactive)	> 100 µM (inactive)	> 100 µM (inactive)	26.8 µM (inactive)	60.8	> 100 µM (inactive)	> 100 µM (inactive)	37.3 µM (inactive)	31.8 µM (inactive)	23.5 µM (inactive)	> 100 µM (inactive)	> 100 µM (inactive)	34 µM (inactive)	> 100 µM (inactive)	> 100 µM (inactive)	> 100 µM (inactive)	> 100 µM (inactive)	> 100 µM (inactive)	> 100 µM (inactive)
C=C(C)[C@@H]1CC[C@]2(C(=O)O)CC[C@]3(C)[C@H](CC[C@@H]4[C@@]5(C)CC(=O)C(C)(C)[C@@H]5CC[C@]43C)[C@@H]12	8.11 µM (inactive)	8.13 µM (inactive)	11.1 µM (inactive)	10 µM (inactive)	0.574 µM (active)	8.67	9.48 µM (inactive)	4.68 µM (inactive)	5.13 µM (inactive)	6.38 µM (inactive)	8.02 µM (inactive)	4.46 µM (inactive)	5.65 µM (inactive)	0.649 µM (active)	9.46 µM (inactive)	6.38 µM (inactive)	4.48 µM (inactive)	5.78 µM (inactive)	6.47 µM (inactive)	9.86 µM (inactive)
COc1ccc(N2C(=O)C3c4[nH]c5c(C)cccc5c4C4CCC(C(C)(C)C)CC4C3C2=O)cc1 (stereo not given)	> 10 µM (inactive)	> 10 µM (inactive)	> 10 µM (inactive)	> 10 µM (inactive)	> 10 µM (inactive)	> 10	8.17 µM (inactive)	5.97 µM (inactive)	3.44 µM (inactive)	4.51 µM (inactive)	> 10 µM (inactive)	8.79 µM (inactive)	> 10 µM (inactive)	3.3 µM (inactive)	> 10 µM (inactive)	> 10 µM (inactive)	6 µM (inactive)	> 10 µM (inactive)	> 10 µM (inactive)	> 10 µM (inactive)
CC(=O)Nc1ccc2c3c(cc(O)c2c1)N(C(=O)CCCCCC(=O)Nc1ccc2c4c(cc(O)c2c1)N(C(=O)OC(C)(C)C)CC4CCl)CC3CCl (stereo not given)	6.28 µM (inactive)	1.53 µM (inactive)	> 100 µM (inactive)	3.54 µM (inactive)	0.0995 µM (active)	> 100	3.94 µM (inactive)	1.99 µM (inactive)	0.118 µM (active)	3.3 µM (inactive)	1.63 µM (inactive)	3.45 µM (inactive)	4.33 µM (inactive)	0.355 µM (active)	1.81 µM (inactive)	1.57 µM (inactive)	3.37 µM (inactive)	1.05 µM (active)	0.74 µM (active)	8.05 µM (inactive)
Nc1ncnn2c(C3OC(CO)C(O)C3O)ccc12 (stereo not given)	0.164 µM (active)	0.163 µM (active)	0.237 µM (active)	0.226 µM (active)	0.144 µM (active)	0.138	0.0875 µM (active)	0.188 µM (active)	0.0364 µM (active)	0.163 µM (active)	0.137 µM (active)	0.195 µM (active)	0.153 µM (active)	0.105 µM (active)	0.261 µM (active)	0.169 µM (active)	0.147 µM (active)	0.237 µM (active)	0.125 µM (active)	0.21 µM (active)
COc1cc(OC)c2c(=O)c(O)c(-c3ccc(OC)c(OC)c3)oc2c1	> 25.2 µM (inactive)	47.8 µM (inactive)	2.86 µM (inactive)	13.6 µM (inactive)	3.1 µM (inactive)	3.08	17.3 µM (inactive)	4.84 µM (inactive)	3.33 µM (inactive)	5.25 µM (inactive)	22.6 µM (inactive)	6.28 µM (inactive)	5.28 µM (inactive)	3.48 µM (inactive)	3.99 µM (inactive)	3.56 µM (inactive)	4.72 µM (inactive)	4.23 µM (inactive)	4.94 µM (inactive)	4.86 µM (inactive)
C=C1CC/C=C(\C)CCC[C@H](C)[C@@H](O)[C@@H]2OC(=O)C(=C)[C@@H]2C[C@H]1O	2.99 µM (inactive)	8.47 µM (inactive)	8.3 µM (inactive)	29.8 µM (inactive)	1.14 µM (inactive)	3.42	7.91 µM (inactive)	2.83 µM (inactive)	4.83 µM (inactive)	2.99 µM (inactive)	3.62 µM (inactive)	5.93 µM (inactive)	14.9 µM (inactive)	2.42 µM (inactive)	16 µM (inactive)	9.12 µM (inactive)	3.52 µM (inactive)	1.84 µM (inactive)	18.1 µM (inactive)	3.88 µM (inactive)
Oc1ccc(-c2nc(-c3cccnc3)c(-c3ccc(Cl)cc3)[nH]2)cc1	16 µM (inactive)	12.6 µM (inactive)	14.5 µM (inactive)	13.6 µM (inactive)	1.79 µM (inactive)	12.1	19.4 µM (inactive)	10.3 µM (inactive)	5.43 µM (inactive)	10.5 µM (inactive)	12.3 µM (inactive)	15.8 µM (inactive)	16.2 µM (inactive)	6.95 µM (inactive)	16.9 µM (inactive)	12.5 µM (inactive)	3.47 µM (inactive)	10.3 µM (inactive)	14.3 µM (inactive)	10.9 µM (inactive)
COc1ccc(OC)c2c(=S)c3ccccc3[nH]c12	> 100 µM (inactive)	> 100 µM (inactive)	> 100 µM (inactive)	> 100 µM (inactive)	35.3 µM (inactive)	47.5	> 100 µM (inactive)	55.2 µM (inactive)	49.5 µM (inactive)	36.3 µM (inactive)	71.3 µM (inactive)	> 100 µM (inactive)	> 100 µM (inactive)	25.3 µM (inactive)	> 100 µM (inactive)	> 100 µM (inactive)	37.9 µM (inactive)	49.1 µM (inactive)	> 87.3 µM (inactive)	> 96.6 µM (inactive)
COc1cc2oc(-c3ccc(O)cc3O)c(CC=C(C)C)c(=O)c2c(O)c1/C=C/C(C)C [ARTOCARPIN]	5.85 µM (inactive)	2.79 µM (inactive)	2.64 µM (inactive)	7.21 µM (inactive)	2.36 µM (inactive)	2.96	3.44 µM (inactive)	4.02 µM (inactive)	2.02 µM (inactive)	2.12 µM (inactive)	1.99 µM (inactive)	1.81 µM (inactive)	2.55 µM (inactive)	2.75 µM (inactive)	2.42 µM (inactive)	2.08 µM (inactive)	2.62 µM (inactive)	3.24 µM (inactive)	2.56 µM (inactive)	3.52 µM (inactive)
